Results taken from US20230096766A1, “AMINO ACID HAVING FUNCTIONAL GROUP CAPABLE OF INTERMOLECULAR HYDROGEN BONDING, PEPTIDE COMPOUND CONTAINING SAME AND METHOD FOR PRODUCTION THEREOF” (Chugai Seiyaku Kabushiki Kaisha, priority 2018, published 2023).
*1 amine or outer side, *2 acyl side, *3 side chain or, on linkers, in order; H or OH if unused. Where a SMILES comes first, the peptide text is derived from it. Bridges are numbered along the chain shown (N, C = ends). [ ]: non-standard residue; d: D form. The star is where a group is joined. Phe(3-CONHMe,4-OMe) = CNC(=O)c1cc(C[C@H](N)C(=O)O)ccc1OC; NMePhe(3-Cl) = CN[C@@H](Cc1cccc(Cl)c1)C(=O)O; NMeF = CN[C@@H](Cc1ccccc1)C(=O)O; NMeGABA = CN(CCCC(=O)[*:2])[*:1]; NMeI = CC[C@H](C)[C@H](NC)C(=O)O; NMeL = CN[C@@H](CC(C)C)C(=O)O; NMeV = CN[C@H](C(=O)O)C(C)C; NMeAbu = CC[C@H](NC)C(=O)O; Piperidide = C1CCN(*)CC1; NBuGly = CCCCNCC(=O)O; Sar = CNCC(=O)O; tBu = CC(C)(C)*

Assay: in vitro
Conditions: human, Caco-2, Caco-2 (cm/sec)
For `CCCCN1CC(=O)N(C)[C@@H](CC(C)C)C(=O)N[C@@H](Cc2ccc(OC)c(C(=O)NC)c2)C(=O)N(C)[C@@H](CC(C)C)C(=O)N(C)[C@@H](CC(C)C)C(=O)N[C@H](C(=O)N2CCCCC2)CC(=O)N[C@H](CC(C)C)C(=O)N(C)[C@@H](Cc2ccccc2)C(=O)N[C@@H](C(C)C)C(=O)N(C)[C@@H](CC(C)C)C(=O)N[C@@H]([C@@H](C)O)C1=O` [AP36] ([dL][NMeF]V[NMeL]T[NBuGly][NMeL][Phe(3-CONHMe,4-OMe)][NMeL][NMeL]D-Piperidide; lactam N-11), the Papp was 0.26 ×10⁻⁶ cm/s.
In the case of `CCCCN1CC(=O)N(C)[C@@H](CC(C)C)C(=O)N[C@@H](COC(C)(C)C)C(=O)N(C)[C@@H]([C@@H](C)CC)C(=O)N(C)[C@@H](CC(C)C)C(=O)N[C@H](C(=O)N2CCCCC2)CC(=O)N[C@H](C)C(=O)N(C)[C@@H](Cc2ccccc2)C(=O)N[C@@H](Cc2ccc(OC)c(C(=O)NC)c2)C(=O)N(C)[C@@H](CC(C)C)C(=O)N[C@@H]([C@@H](C)O)C1=O` [AP37] ([dA][NMeF][Phe(3-CONHMe,4-OMe)][NMeL]T[NBuGly][NMeL]S(tBu)[NMeI][NMeL]D-Piperidide; lactam N-11), the Papp is reported as 0.4 ×10⁻⁶ cm/s.
`CC[C@H](C)[C@@H]1NC(=O)[C@H](CC(C)C)N(C)C(=O)CCCN(C)C(=O)C[C@@H](C(=O)N2CCCCC2)NC(=O)[C@H](CC(C)C)N(C)C(=O)[C@H](CC(C)C)N(C)C(=O)[C@H]([C@@H](C)O)NC(=O)[C@H](CC(C)C)N(C)C(=O)[C@H](Cc2ccc(OC)c(C(=O)NC)c2)NC(=O)[C@H](CC(C)C)N(C)C(=O)[C@H](Cc2ccccc2)N(C)C1=O` [AP38] ([NMeGABA][NMeL]I[NMeF][NMeL][Phe(3-CONHMe,4-OMe)][NMeL]T[NMeL][NMeL]D-Piperidide; lactam N-11) gave a Papp of 0.2 ×10⁻⁶ cm/s.
`CC[C@H](C)[C@H]1C(=O)N[C@@H]([C@@H](C)O)C(=O)N(C)CC(=O)N(C)[C@@H](CC)C(=O)N[C@H](C(=O)N2CCCCC2)CC(=O)N(C)[C@@H](CC(C)C)C(=O)N[C@@H](Cc2ccc(OC)c(C(=O)NC)c2)C(=O)N(C)[C@@H](CC(C)C)C(=O)N(C)[C@@H](Cc2ccccc2)C(=O)N[C@@H](CC(C)C)C(=O)N(C)[C@@H](CC(C)C)C(=O)N1C` [AP39] ([NMeL][Phe(3-CONHMe,4-OMe)][NMeL][NMeF]L[NMeL][NMeI]T[Sar][NMeAbu]D-Piperidide; lactam N-11) showed a Papp of 0.01 ×10⁻⁶ cm/s.
Molecule `CNC(=O)c1cc(C[C@@H]2NC(=O)[C@H](CC(C)C)N(C)C(=O)[C@H](CC(C)C)N(C)C(=O)[C@H](CC(C)C)NC(=O)[C@H](CC(C)C)N(C)C(=O)C[C@@H](C(=O)N3CCCCC3)NC(=O)[C@H](CC(C)C)N(C)C(=O)CN(C)C(=O)[C@H]([C@@H](C)O)NC(=O)[C@H](C(C)C)N(C)C(=O)[C@H](CC(C)C)N(C)C2=O)ccc1OC` [AP40] ([NMeL]L[NMeL][NMeL][Phe(3-CONHMe,4-OMe)][NMeL][NMeV]T[Sar][NMeL]D-Piperidide; lactam N-11) has a Papp of 0.63 ×10⁻⁶ cm/s.
In the case of `CCCCN1CC(=O)N(C)[C@@H](CC(C)C)C(=O)N(C)[C@@H](CC(C)C)C(=O)N[C@@H](COC(C)(C)C)C(=O)N(C)[C@@H](CC(C)C)C(=O)N[C@H](C(=O)N2CCCCC2)CC(=O)N(C)CC(=O)N(C)[C@@H](Cc2cccc(Cl)c2)C(=O)N[C@@H](Cc2ccc(OC)c(C(=O)NC)c2)C(=O)N(C)[C@@H](CC(C)C)C(=O)N[C@@H]([C@@H](C)O)C1=O` [AP41] ([Sar][NMePhe(3-Cl)][Phe(3-CONHMe,4-OMe)][NMeL]T[NBuGly][NMeL][NMeL]S(tBu)[NMeL]D-Piperidide; lactam N-11), the Papp is reported as 0.45 ×10⁻⁶ cm/s.
For `CC[C@H](C)[C@@H]1NC(=O)[C@H](CC(C)C)N(C)C(=O)CN(C)C(=O)C[C@@H](C(=O)N2CCCCC2)NC(=O)[C@H](CC(C)C)N(C)C(=O)[C@H](Cc2ccc(OC)c(C(=O)NC)c2)NC(=O)[C@H](CC(C)C)N(C)C(=O)[C@H](Cc2cccc(Cl)c2)N(C)C(=O)CN(C)C(=O)[C@H]([C@@H](C)O)NC(=O)[C@H](CC(C)C)N(C)C1=O` [AP42] ([Sar][NMeL]I[NMeL]T[Sar][NMePhe(3-Cl)][NMeL][Phe(3-CONHMe,4-OMe)][NMeL]D-Piperidide; lactam N-11), the Papp was 0.25 ×10⁻⁶ cm/s.
